Measured values taken from the supplement of paper PMC11061612.

Key:
[1] = test system: L-1236 (Hodgkin's Lymphoma); assay: combination Emax (second highest fraction inhibited in the dose matrix, 72 h); higher = more inhibition; extreme values may be limits of the assay
In short: (§1)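 Bliss excess equals the observed combination effect minus the expected value EA + EB − EA·EB, where EA and EB are the effects of each agent alone. Combination Emax is the second-highest inhibition within the matrix. Inhibition was scaled from CellTiter-Glo 2.0 luminescence, with 0 set by vehicle wells and 1 by blank wells, after 72 hours of two-drug dosing of cells plated in 1536-well plates.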

[2] = test system: COLO-680N (Esophageal Squamous Cell Carcinoma); assay: as above
In short: as §1

[3] = test system: PC-3_[JPC-3] (Lung Adenocarcinoma); assay: as above
In short: as §1

[4] = test system: SHP-77 (Small Cell Lung Carcinoma); assay: as above
In short: as §1

[5] = test system: LK-2 (Squamous Cell Lung Carcinoma); assay: Bliss excess, mean over the matrix (fraction); higher = more synergy
In short: as §1

[6] = test system: SK-PN-DW (Other Solid Carcinomas); assay: as above
In short: as §1

[7] = test system: HSC-39 (Gastric Carcinoma); assay: as above
In short: as §1

[8] = test system: L-1236 (Hodgkin's Lymphoma); assay: as above
In short: as §1

IST-MES1 (Mesothelioma) = assay: as above
In short: as §1

[9] = test system: OVMIU (Ovarian Carcinoma); assay: as above
In short: as §1

[10] = test system: COLO-680N (Esophageal Squamous Cell Carcinoma); assay: as above
In short: as §1

[11] = test system: PSN1 (Pancreatic Carcinoma); assay: as above
In short: as §1

SF539 (Glioblastoma) = assay: as above
In short: as §1

[12] = test system: VAL (B-Cell Non-Hodgkin's Lymphoma); assay: as above
In short: as §1

[13] = test system: REH (B-Lymphoblastic Leukemia); assay: as above
In short: as §1

SK-MEL-2 (Melanoma) = assay: as above
In short: as §1

NB12 (Neuroblastoma) = assay: as above
In short: as §1

[14] = test system: SHP-77 (Small Cell Lung Carcinoma); assay: as above
In short: as §1

[15] = test system: MKN45 (Gastric Carcinoma); assay: as above
In short: as §1

[16] = test system: PANC-03-27 (Pancreatic Carcinoma); assay: as above
In short: as §1

| SMILES | combination Emax [1] | combination Emax [2] | combination Emax [3] | combination Emax [4] | Bliss excess [5] | Bliss excess [6] | Bliss excess [7] | Bliss excess [8] | Bliss excess (IST-MES1 (Mesothelioma)) | Bliss excess [9] | Bliss excess [10] | Bliss excess [11] | Bliss excess (SF539 (Glioblastoma)) | Bliss excess [12] | Bliss excess [13] | Bliss excess (SK-MEL-2 (Melanoma)) | Bliss excess (NB12 (Neuroblastoma)) | Bliss excess [14] | Bliss excess [15] | Bliss excess [16] |
| --- | --- | --- | --- | --- | --- | --- | --- | --- | --- | --- | --- | --- | --- | --- | --- | --- | --- | --- | --- | --- |
| C[C@@H](Nc1cc(F)cc(F)c1)c1cc(C(=O)N(C)C)cc2c(=O)cc(N3CCOCC3)oc12 [AZD8186] + CC(=O)c1c(C)c2cnc(Nc3ccc(N4CCNCC4)cn3)nc2n(C2CCCC2)c1=O [Palbociclib] (first compound max 10 µM, 7x7, partner max 10 µM) | 0.697 | 0.419 | 0.369 | 0.337 | 0.0023 | 0.073 | 0.0271 | -0.138 | 0.0167 | -0.0439 | -0.0328 | 0.0298 | 0.0583 | -0.0615 | 0.0638 | -0.0346 | 0.0009 | -0.0692 | -0.0476 | 0.0614 |
| C[C@@H](Oc1cc(-c2cnn(C3CCNCC3)c2)cnc1N)c1c(Cl)ccc(F)c1Cl [Crizotinib] + CC1=C(C(=CC=C1)Cl)NC(=O)C2=CN=C(S2)NC3=CC(=NC(=N3)C)N4CCN(CC4)CCO [Dasatinib] (first compound max 10 µM, 7x7, partner max 2 µM) | 0.905 | 0.869 | 0.809 | 0.259 | -0.0103 | -0.0426 | 0.0093 | -0.0626 | -0.0152 | 0.0041 | -0.0005 | -0.0469 | 0.0661 | -0.0228 | -0.0153 | -0.0362 | -0.0563 | -0.0482 | -0.048 | 0.0688 |
| C[C@@H](Oc1cc(-c2cnn(C3CCNCC3)c2)cnc1N)c1c(Cl)ccc(F)c1Cl [Crizotinib] + Cn1cnc2c(F)c(Nc3ccc(Br)cc3Cl)c(C(=O)NOCCO)cc21 [Selumetinib] (first compound max 10 µM, 7x7, partner max 10 µM) | 0.975 | 0.319 | 0.242 | 0.411 | 0.011 | -0.0705 | -0.0264 | -0.0849 | -0.0311 | -0.0302 | -0.039 | 0.0373 | -0.0212 | -0.0516 | -0.0309 | 0.0382 | -0.0665 | 0.0404 | -0.0192 | -0.0689 |
| CS(=O)(=O)CCNCc1ccc(-c2ccc3ncnc(Nc4ccc(OCc5cccc(F)c5)c(Cl)c4)c3c2)o1 [Lapatinib] + Cn1cnc2c(F)c(Nc3ccc(Br)cc3Cl)c(C(=O)NOCCO)cc21 [Selumetinib] (first compound max 10 µM, 7x7, partner max 10 µM) | 0.712 | 0.408 | 0.653 | 0.387 | -0.0131 | -0.0095 | -0.0089 | -0.0646 | -0.0348 | -0.102 | -0.0171 | -0.0544 | 0.0066 | -0.0549 | -0.0363 | 0.0062 | -0.11 | -0.02 | -0.0778 | 0.044 |
| O=C(c1cc(Cc2n[nH]c(=O)c3ccccc23)ccc1F)N1CCN(C(=O)C2CC2)CC1 [Olaparib] + CC1(C)CCC(CN2CCN(c3ccc(C(=O)NS(=O)(=O)c4ccc(NCC5CCOCC5)c([N+](=O)[O-])c4)c(Oc4cnc5[nH]ccc5c4)c3)CC2)=C(c2ccc(Cl)cc2)C1 [Venetoclax] (first compound max 10 µM, 7x7, partner max 1 µM) | 0.37 | 0.0836 | 0.153 | 0.258 | 0.0039 | 0.0049 | 0.0033 | -0.0009 | -0.0432 | -0.067 | -0.0584 | -0.0231 | -0.0105 | 0.0181 | 0.163 | 0.0044 | 0.0811 | -0.0028 | -0.0424 | -0.0675 |
| O=C(c1cc(Cc2n[nH]c(=O)c3ccccc23)ccc1F)N1CCN(C(=O)C2CC2)CC1 [Olaparib] + CN(CC[C@H](CSC1=CC=CC=C1)NC2=C(C=C(C=C2)S(=O)(=O)NC(=O)C3=CC=C(C=C3)N4CCC(CC4)[C@H](C5=CC=CC=C5C6=CC=C(C=C6)Cl)O)S(=O)(=O)C(F)(F)F)CCO [AZD4320] (first compound max 10 µM, 7x7, partner max 1 µM) | 0.994 | 0.11 | 0.138 | 0.315 | 0.0748 | 0.0012 | -0.0172 | -0.0506 | -0.107 | -0.0979 | -0.0598 | -0.0224 | -0.017 | 0.0212 | 0.0835 | -0.0397 | 0.0362 | 0.0133 | -0.0428 | -0.0341 |
| O=C(c1cc(Cc2n[nH]c(=O)c3ccccc23)ccc1F)N1CCN(C(=O)C2CC2)CC1 [Olaparib] + COc1nnc2ccc(N3CCC(c4ccc(OCCN5CCN(C)C(=O)[C@H]5C)cc4)CC3)nn12 [AZD5153] (first compound max 10 µM, 7x7, partner max 1 µM) | 0.96 | 0.27 | 0.182 | 0.3 | -0.0571 | -0.0518 | -0.072 | -0.0184 | -0.117 | -0.0521 | -0.0446 | -0.0337 | -0.0258 | -0.0784 | 0.0378 | -0.0421 | -0.0203 | 0.0113 | -0.0794 | -0.0776 |
| O=C(c1cc(Cc2n[nH]c(=O)c3ccccc23)ccc1F)N1CCN(C(=O)C2CC2)CC1 [Olaparib] + Cc1c2c(nn1C)CSCc1cc(n(C)n1)CSc1cc(c3ccccc3c1)OCCCc1c(C(=O)O)n(C)c3c-2c(Cl)ccc13 [AZD5991] (first compound max 10 µM, 7x7, partner max 1 µM) | 0.53 | 0.0855 | 0.0845 | 0.288 | 0.041 | -0.0065 | 0.0101 | -0.0851 | -0.0434 | -0.0646 | -0.0543 | -0.0506 | -0.0003 | 0.0078 | 0.0318 | 0.0379 | -0.0407 | 0.0008 | -0.0368 | -0.0462 |
| N#Cc1cnc(Nc2cc(NC[C@H]3CNCCO3)c(C(F)(F)F)cn2)cn1 [SRA737] + C=CCn1c(=O)c2cnc(Nc3ccc(N4CCN(C)CC4)cc3)nc2n1-c1cccc(C(C)(C)O)n1 [AZD1775] (first compound max 10 µM, partner max 1 µM) | 0.952 | 0.35 | 0.26 | 0.722 | 0.115 | 0.0812 | 0.0943 | -0.0475 | 0.0282 | 0.0717 | 0.0422 | 0.0375 | 0.0293 | 0.0116 | 0.162 | 0.098 | 0.0199 | 0.0512 | -0.0475 | -0.0233 |
| N#Cc1cnc(Nc2cc(NC[C@H]3CNCCO3)c(C(F)(F)F)cn2)cn1 [SRA737] + CCc1c2c(nc3ccc(O)cc13)-c1cc3c(c(=O)n1C2)COC(=O)[C@]3(O)CC [SN-38] (first compound max 10 µM, 7x7, partner max 0.3 µM) | 0.944 | 0.552 | 0.72 | 0.912 | 0.154 | -0.0406 | 0.0294 | -0.0136 | -0.0108 | -0.0769 | 0.026 | -0.0149 | -0.0174 | -0.122 | -0.0324 | 0.0931 | -0.114 | 0.13 | 0.0226 | -0.0648 |
| N#Cc1cnc(Nc2cc(NC[C@H]3CNCCO3)c(C(F)(F)F)cn2)cn1 [SRA737] + Nc1ccn([C@@H]2O[C@H](CO)[C@@H](O)C2(F)F)c(=O)n1 [Gemcitabine] (first compound max 10 µM, 7x7, partner max 0.3 µM) | 0.948 | 0.47 | 0.6 | 0.907 | 0.141 | -0.0377 | 0.0564 | 0.0485 | 0.0486 | -0.0588 | 0.0092 | 0.0721 | 0.0222 | -0.125 | 0.0113 | 0.0686 | 0.0372 | 0.141 | -0.0613 | -0.0023 |
| Cc1nc(-c2cn3c(n2)-c2ccc(-c4cnn(C(C)(C)C(N)=O)c4)cc2OCC3)n(C(C)C)n1 [Taselisib] + O=C(Nc1ccc2[nH]nc(-c3ccncc3)c2c1)[C@@H]1CCN(CC(=O)N2CCN(c3ccc(-c4ncccn4)cc3)CC2)C1 [SCH772984] (first compound max 10 µM, 7x7, partner max 5 µM) | 0.722 | 0.5 | 0.665 | 0.387 | 0.0371 | -0.0332 | 0.029 | 0.0543 | -0.0307 | 0.0699 | 0.0219 | 0.0797 | 0.0465 | -0.002 | 0.102 | 0.136 | -0.0116 | -0.0221 | 0.0587 | 0.0848 |
| CC1(C)CCC(CN2CCN(c3ccc(C(=O)NS(=O)(=O)c4ccc(NCC5CCOCC5)c([N+](=O)[O-])c4)c(Oc4cnc5[nH]ccc5c4)c3)CC2)=C(c2ccc(Cl)cc2)C1 [Venetoclax] + CS(=O)(=O)CCNCc1ccc(-c2ccc3ncnc(Nc4ccc(OCc5cccc(F)c5)c(Cl)c4)c3c2)o1 [Lapatinib] (first compound max 1 µM, 7x7, partner max 10 µM) | 0.655 | 0.231 | 0.568 | 0.344 | 0.0165 | -0.0284 | -0.0257 | -0.0583 | -0.0357 | -0.0328 | -0.0166 | -0.0211 | -0.0166 | -0.0033 | 0.0755 | -0.0207 | -0.0427 | 0.0197 | -0.054 | -0.0535 |
